Literature values as cited in patent US10010615B2 (KemPharm, Inc., priority 2009, dated 2018).

Tests used:
[1] = test system: leptin; conditions: chronic oral administration for 6 weeks
[2] = target: human NET (Homo sapiens, UniProt P23975); conditions: relative to quetiapine
human NET, sequence (P23975 whole entry): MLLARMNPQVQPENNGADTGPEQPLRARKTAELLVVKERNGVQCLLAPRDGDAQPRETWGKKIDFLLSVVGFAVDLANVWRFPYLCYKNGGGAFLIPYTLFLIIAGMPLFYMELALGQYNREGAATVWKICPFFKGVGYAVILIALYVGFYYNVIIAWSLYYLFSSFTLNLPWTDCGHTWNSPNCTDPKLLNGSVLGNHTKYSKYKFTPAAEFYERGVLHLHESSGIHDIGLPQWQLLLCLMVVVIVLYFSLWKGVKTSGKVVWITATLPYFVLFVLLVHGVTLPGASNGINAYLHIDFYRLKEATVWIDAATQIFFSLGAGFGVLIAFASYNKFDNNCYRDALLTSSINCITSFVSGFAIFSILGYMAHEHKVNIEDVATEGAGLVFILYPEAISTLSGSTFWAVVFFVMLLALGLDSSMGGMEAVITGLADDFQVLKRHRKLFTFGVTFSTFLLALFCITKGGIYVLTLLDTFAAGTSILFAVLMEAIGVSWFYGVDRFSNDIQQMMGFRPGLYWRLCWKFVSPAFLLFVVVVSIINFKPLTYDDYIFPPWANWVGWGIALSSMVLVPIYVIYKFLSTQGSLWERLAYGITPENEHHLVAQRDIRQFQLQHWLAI

increase in leptin release [1] | Compound | higher avidity for inhibiting human NET than quetiapine [2]
about 37% | OCCOCCN1CCN(C2=Nc3ccccc3Sc3ccccc32)CC1 [quetiapine, 2-(2-(4-(dibenzo[b,f][1,4]thiazepin-11-yl)piperazin-1-yl)ethoxy)ethanol] | 
 | c1ccc2c(c1)N=C(N1CCNCC1)c1ccccc1S2 [N-desalkyl-quetiapine, 4-(dibenzo[b,f][1,4]thiazepin-11-yl)piperazine] | about 100 fold
